Measurements: patent US20250205235A1, “DOSE REGIMEN FOR VERICIGUAT” (ADVERIO PHARMA GMBH, priority 2023, published 2025)

Columns and labels:
[1] = some patients receiving vericiguat in clinical trials; cited from earlier work
[2] = system: participants with chronic heart failure with reduced ejection fraction; experiment: Phase 2b open-label clinical study of tolerability and safety of a 5 mg initiation dose of vericiguat (NCT06195930)
Protocol: A Phase 2b open-label clinical study to evaluate the tolerability and safety of an initiation dose of 5 mg of Vericiguat in participants with chronic heart failure with reduced ejection fraction.
The patients had symptomatic chronic heart failure with reduced ejection fraction (HFrEF). […] Participants underwent a screening visit to assess eligibility. Eligible participants waited a mandatory 2 weeks before returning for Visit 1 in order to be clinically and hemodynamically stable. At Visit 1 (V1), participants received vericiguat with directions to take a 5 mg tablet once daily for 2 weeks. Participants returned for Visit 2 (V2) after 2 weeks of treatment. There were unplanned healthcare visits for heart failure between Visits 1 and 2 at the discretion of the investigator.
Primary objective was to evaluate the tolerability of 5 mg as a starting dose of vericiguat. Endpoint: Treatment tolerability, defined as the completion of the two-week 5 mg dose without discontinuation of study intervention and without moderate to severe symptomatic hypotension between Visit 1 (V1) and Visit 2 (V2) Secondary objective 1 was to describe safety events of initiation of 5 mg dose. Endpoints: Any adverse event reported between V1 and V2. Absence of adverse events related to study intervention between V1 and V2.
Secondary objective 2 was to further evaluate the tolerability of 5 mg as a starting dose of vericiguat. Endpoint: Continuous intake of study intervention between V1 and V2 or restart of study intervention after any temporary interruption.
Dose changes in GDMT medications (RAS blockade, Beta-blocker, MRA, or SGLT2i) or oral diuretics for 2 weeks were discouraged, except when mandated by known side-effects for individual drug classes (e.g., hyperkalemia for MRA or angioedema for ACE-inhibitors/ARNI). Use of short and long-acting nitrates was permitted.
On Days 1-14, 5.0 mg Verquvo® vericiguat was administered orally once daily. The endpoint was tolerability based on need for treatment interruption between Days 1 and Day 14.

[3] = 106 started treatment, 5 mg once daily for 2 weeks

Compound: COC(=O)Nc1c(N)nc(-c2nn(Cc3ccccc3F)c3ncc(F)cc23)nc1N [Vericiguat, methyl {4,6-diamino-2-[5-fluoro-1-(2-fluorobenzyl)-1H-pyrazolo[3,4-b]pyridin-3-yl]pyrimidin-5-yl}carbamate]
- Effect on systolic blood pressure compared with placebo [1]: reduction of systolic blood pressure
- Difference between participants with and without recent worsening heart failure events in meeting primary and secondary endpoints ([2]; 5 mg dose, 2 weeks): no major differences
- Primary endpoint: participants who completed the 2-week treatment period without moderate to severe symptomatic hypotension and without temporary treatment interruptions exceeding 1 day ([2]; 5 mg dose, 2 weeks): 93.4%
- Secondary endpoint 1: participants who completed the 2-week treatment period without reported intervention-related adverse events ([2]; 5 mg dose, 2 weeks): 90.6%
- Secondary endpoint 2: participants who completed treatment with continuous intervention intake or restarted study intervention after a temporary interruption ([2]; 5 mg dose, 2 weeks): 96.2%
- patients who continued through the 14-day titration without a medical need for interruption ([2]; 5.0 mg orally once daily, Days 1-14): at least 90%
- TREATMENT phase: Completed [2, 3]: 102 (96.2%) Number of participants (%)
- TREATMENT phase: Did not complete [2, 3]: 4 (3.8%) Number of participants (%)
- Tolerability of initiating treatment at 5 mg (in words) ([2]; HFrEF population with and without recent worsening heart failure events, on current GDMT): well tolerated
- discontinuations for AE ([2]; OVERALL N = 106, SAF, 5 mg once daily, two weeks): 4 discontinuations
- Any AE ([2]; SAF N = 106, 5 mg): 14 (13.2%) Number (%) of participants
- Any AE leading to discontinuation of intervention ([2]; SAF N = 106, 5 mg): 4 (3.8%) Number (%) of participants
- Any AE leading to dose modification of study intervention (delays, interruptions and reductions) ([2]; SAF N = 106, 5 mg): 6 (5.7%) Number (%) of participants
- Any AE of special interest ([2]; SAF N = 106, 5 mg): 6 (5.7%) Number (%) of participants
- Any AE related to procedures required by the protocol ([2]; SAF N = 106, 5 mg): 0 Number (%) of participants
- Any SAE ([2]; SAF N = 106, 5 mg): 1 (0.9%) Number (%) of participants
- Any SAE leading to discontinuation of intervention ([2]; SAF N = 106, 5 mg): 0 Number (%) of participants
- Any SAE related to procedures required by the protocol ([2]; SAF N = 106, 5 mg): 0 Number (%) of participants
- Any intervention-related AE ([2]; SAF N = 106, 5 mg): 10 (9.4%) Number (%) of participants
- Any intervention-related SAE ([2]; SAF N = 106, 5 mg): 0 Number (%) of participants
- Life-threatening SAE ([2]; SAF N = 106, 5 mg): 0 Number (%) of participants
- Maximum intensity for any AE: MILD ([2]; SAF N = 106, 5 mg): 9 (8.5%) Number (%) of participants
- Maximum intensity for any AE: MODERATE ([2]; SAF N = 106, 5 mg): 4 (3.8%) Number (%) of participants
- Maximum intensity for any AE: SEVERE ([2]; SAF N = 106, 5 mg): 1 (0.9%) Number (%) of participants
- Maximum intensity for intervention-related AEs: MILD ([2]; SAF N = 106, 5 mg): 8 (7.5%) Number (%) of participants
- Maximum intensity for intervention-related AEs: MODERATE ([2]; SAF N = 106, 5 mg): 2 (1.9%) Number (%) of participants
- Participants with total duration of interruption/delay of 0 days ([2]; SAF N = 106, 5 mg): 102 (96.2%) n (%)
- Participants with total duration of interruption/delay of 1 day ([2]; SAF N = 106, 5 mg): 1 (0.9%) n (%)
- Participants with total duration of interruption/delay of 2 days ([2]; SAF N = 106, 5 mg): 3 (2.8%) n (%)
- SAE requiring hospitalization ([2]; SAF N = 106, 5 mg): 1 (0.9%) Number (%) of participants
- SAE resulting in substantial disruption of normal life functions ([2]; SAF N = 106, 5 mg): 0 Number (%) of participants
- SAE with fatal outcome ([2]; SAF N = 106, 5 mg): 0 Number (%) of participants
- SAE: Congenital anomaly or birth defect ([2]; SAF N = 106, 5 mg): 0 Number (%) of participants
- SAE: Other ([2]; SAF N = 106, 5 mg): 0 Number (%) of participants
- Total Duration of Interruption/Delay, Max ([2]; SAF N = 106, 5 mg): 2 days
- Total Duration of Interruption/Delay, Mean (SD) ([2]; SAF N = 106, 5 mg): 0.1 (0.3) ^ days
- Total Duration of Interruption/Delay, Median ([2]; SAF N = 106, 5 mg): 0.0 days
- Total Duration of Interruption/Delay, Min ([2]; SAF N = 106, 5 mg): 0 days
- TREATMENT phase: Did not complete, primary reason ADVERSE EVENT ([2]; percentage of the participants who did not complete): 4 (100.0%) Number of participants (%)
